From patent US9103790B2, “Linker for unimolecular FRET biosensor based on principle of fluorescence resonance energy transfer” (KYOTO UNIVERSITY, priority 2010, dated 2015)

Key:
[1] = test system: EGF dependent-activation of ERK; experiment: Drug sensitivity test: FRET measurement of ERK activity in cell line stably expressing Eevee-ERK (3560 NES); assay type: cell-based, human; conditions: HeLa cells stably expressing Eevee-ERK (3560 NES); serial-diluted inhibitors; 25 ng/mL EGF; after 30 min; average of 30 or more cells
Experimental: FIG. 18A illustrates results when HeLa cells stably expressing Eevee-ERK were seeded onto a 96-well plate, were added thereto serial-diluted inhibitors and stimulated with 25 ng/mL EGF. ERK activities were automatically measured for 30 or more cells, averaged, and plotted. FIG. 18A illustrates results of DMSO controls.
A mammalian cell expression plasmid containing the gene of Eevee-ERK (3560 NES) described in Example 3 was inserted into a plasmid having a transposon recognition sequence. This plasmid and a transposon expression vector was co-transfected as previously reported and screened for biosensor-expressing cell lines by blasticidin [Yusa, K., R. Rad, J. Takeda, and A. Bradley. 2009. Generation of transgene-free induced pluripotent mouse stem cells by the piggyBac transposon. Nat. Methods 6 (5)363-369].
Cultured cell lines were seeded onto a 96-well culture plate. Serial-diluted inhibitors were added thereto. The cell lines were stimulated with 25 ng/mL EGF. After 30 min, ERK activities were measured as described in Example 3 (see FIGS. 18A to 18H). The average ERK activities of 30 or more cells were plotted. The following inhibitors were used: EGF receptor inhibitors (AG1478), MEK inhibitors (PD15035, PD184351), BRAF inhibitors (PLX4720), phosphatidylinositol 3-phosphate kinase inhibitors (LY294002), RSK inhibitors (BI-D1870) and JNK inhibitors (JNK inhibitor VIII).

PKA = experiment: Drug sensitivity test with transgenic mouse expressing Eevee-PKA (3536 NES), two-photon FRET imaging of small intestine; assay type: in vivo; conditions: intravenous injection; intermuscular nerve cell, intestinal smooth muscle, vascular smooth muscle
Excerpt: FIG. 19 illustrates results when the transgenic mouse expressing Eevee-PKA (3536 NES) was intravenously injected with theophylline, which is a phosphodiesterase inhibitor, and actosin, which is a cyclic adenosine triphosphate analog, and measured for PKA activities.
The transgenic mouse expressing Eevee-PKA (3536 NES) generated in Example 10 was anesthetized with isoflurane. A small intestine of the mouse was time-lapse imaged by an inverted two-photon microscope IX81/FV1000 (product of Olympus Corporation). Cells were excited at 840 nm with a titanium-sapphire laser system (Mai Tai Deep See HP; product of Spectra-Physics, Inc.). CFP fluorescence and YFP fluorescence were acquired using BA 460-500 fluorescence filter (product of Olympus Corporation) and BA 520-560 fluorescence filter (product of Olympus Corporation), respectively. FRET images were obtained in the same manner as in Example 3.
The transgenic mouse was intravenously injected with theophylline, which is a phosphodiesterase inhibitor, and actosin, which is a cyclic adenosine triphosphate analog, and measured for PKA activities.

SMILES | inhibition of EGF dependent-activation of ERK [1] | PKA activities (FRET) (PKA)
O=C(NOCC1CC1)c1ccc(F)c(F)c1Nc1ccc(I)cc1Cl [PD184352] | effectively inhibited | –
COc1cc2ncnc(Nc3cccc(Br)c3)c2cc1OC [PD153035] | effectively inhibited | –
COc1cc2ncnc(Nc3cccc(Cl)c3)c2cc1OC [AG1478] | effectively inhibited | –
Cn1c(=O)c2[nH]cnc2n(C)c1=O [theophylline] | – | Changes in PKA activities
CCCC(=O)Nc1ncnc2c1ncn2[C@@H]1O[C@@H]2COP(=O)([O-])O[C@H]2[C@H]1OC(=O)CCC.[Na+] [actosin] | – | Changes in PKA activities
